Assay results reported in US9561228B2 (Celgene Avilomics Research, Inc., priority 2013, dated 2017).

Legend:
Type in all cases: cell-based
[1] = system: HT-29 cells (colorectal adenocarcinoma); test: Inhibition of cancer cell proliferation, HT-29 (CellTiterGlo, 72 hours); conditions: Homo sapiens
Method in brief: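 Proliferation over 72 h at 37° C was read by CellTiterGlo luminescence, translated to cell counts with a cell-density standard curve (390–50,000 cells). Compound added as 3-fold dilutions from a 5,000 nM two-fold stock to 3000 seeded HT-29 cells; GI50 from percent inhibition relative to untreated wells.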

[2] = system: HCT116 cells (colorectal carcinoma); test: Inhibition of cancer cell proliferation, HCT116 (CellTiterGlo, 72 hours); conditions: Homo sapiens, HCT-116
Method in brief: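 3000 cells per well exposed to 3-fold serial compound dilutions from 5,000 nM (two-fold solution, stock level) for 72 hours at 37° C. CellTiterGlo luminescence converted to cell number via a standard curve; percent inhibition vs untreated wells, GI50 by curve fit.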

[3] = system: A375 cells (malignant melanoma); test: Inhibition of cancer cell proliferation, A375 (CellTiterGlo, 72 hours); conditions: Homo sapiens, A-375
Method in brief: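 GI50 derived from % growth inhibition relative to untreated wells, after luminescence (CellTiterGlo, 10 min) was converted to cell counts using a standard curve. Compound given as 3-fold dilutions from a 2× 5,000 nM stock in serum-free DMEM; 3000 A375 cells/well, 72 h culture at 37 °C.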

Row | Structure (SMILES) | GI50 [1] | GI50 [2] | GI50 [3]
1 | C=CC(=O)Nc1cc(C)ccc1Nc1nc(Nc2nc(OC)ncc2OC)ncc1C(F)(F)F [Compound I-349, N-(2-((2-((2,5-dimethoxypyrimidin-4-yl)amino)-5-(trifluoromethyl)pyrimidin-4-yl)amino)-5-methylphenyl)acrylamide] | 101 to 500 nM | > 1000 nM | 101 to 500 nM
2 | C=CC(=O)Nc1cc(C)ccc1Nc1nc(Nc2cc(NCCOC)nc(OC)c2)ncc1C(F)(F)F [Compound I-294, N-(2-((2-((2-methoxy-6-((2-methoxyethyl)amino)pyridin-4-yl)amino)-5-(trifluoromethyl)pyrimidin-4-yl)amino)-5-methylphenyl)acrylamide] | < 100 nM | < 100 nM | < 100 nM
3 | C=CC(=O)Nc1cc(C)ccc1Nc1nc(Nc2ccnc3ccccc23)ncc1C(F)(F)F [Compound I-379, N-(5-methyl-2-((2-(quinolin-4-ylamino)-5-(trifluoromethyl)pyrimidin-4-yl)amino)phenyl)acrylamide] | 101 to 500 nM | 101 to 500 nM | 101 to 500 nM
4 | C=CC(=O)Nc1cc(C)ccc1Nc1nc(Nc2nc(OC)ncc2C(F)(F)F)ncc1C(F)(F)F [Compound I-355, N-(2-((2-((2-methoxy-5-(trifluoromethyl)pyrimidin-4-yl)amino)-5-(trifluoromethyl)pyrimidin-4-yl)amino)-5-methylphenyl)acrylamide] | 501 to 999 nM | > 1000 nM | 101 to 500 nM
5 | C=CC(=O)Nc1cc(C)ccc1Nc1nc(Nc2nc(OC)ccc2Cl)ncc1C(F)(F)F [Compound I-360, N-(2-((2-((3-chloro-6-methoxypyridin-2-yl)amino)-5-(trifluoromethyl)pyrimidin-4-yl)amino)-5-methylphenyl)acrylamide] | > 1000 nM | > 1000 nM | 101 to 500 nM
6 | C=CC(=O)Nc1cc(C)ccc1Nc1nc(Nc2nc(OC)ncc2C#N)ncc1C(F)(F)F [Compound I-346, N-(2-((2-((5-cyano-2-methoxypyrimidin-4-yl)amino)-5-(trifluoromethyl)pyrimidin-4-yl)amino)-5-methylphenyl)acrylamide] | 101 to 500 nM | 501 to 999 nM | 101 to 500 nM
7 | C=CC(=O)Nc1cc(C)ccc1Nc1nc(Nc2cc(OC)nc(N3CCN(C(C)=O)CC3)c2)ncc1C(F)(F)F [Compound I-93, N-(2-((2-((2-(4-Acetylpiperazin-1-yl)-6-methoxypyridin-4-yl)amino)-5-(trifluoromethyl)pyrimidin-4-yl)amino)-5-methylphenyl)acrylamide] | < 100 nM | < 100 nM | < 100 nM
8 | C=CC(=O)Nc1cc(C)ccc1Nc1nc(Nc2cc(OCCOC)ncc2C)ncc1C(F)(F)F [Compound I-359, N-(2-((2-((2-(2-methoxyethoxy)-5-methylpyridin-4-yl)amino)-5-(trifluoromethyl)pyrimidin-4-yl)amino)-5-methylphenyl)acrylamide] | 501 to 999 nM | > 1000 nM | 101 to 500 nM
9 | C=CC(=O)Nc1ccccc1Nc1nc(Nc2cc(OC)nc(N3CCN(C(C)=O)CC3)c2)ncc1C(F)(F)F [Compound I-92] | < 100 nM | < 100 nM | < 100 nM
10 | C=CC(=O)Nc1cc(C)c(F)cc1Nc1nc(Nc2nc(OC)ncc2Cl)ncc1C(F)(F)F [Compound I-374, N-(2-((2-((5-chloro-2-methoxypyrimidin-4-yl)amino)-5-(trifluoromethyl)pyrimidin-4-yl)amino)-4-fluoro-5-methylphenyl)acrylamide] | 101 to 500 nM | 101 to 500 nM | < 100 nM
11 | C=CC(=O)Nc1cc(C)ccc1Nc1nc(Nc2cc(OCCO)ncc2C)ncc1C(F)(F)F [Compound I-376, N-(2-((2-((2-(2-hydroxyethoxy)-5-methylpyridin-4-yl)amino)-5-(trifluoromethyl)pyrimidin-4-yl)amino)-5-methylphenyl)acrylamide] | 101 to 500 nM | 501 to 999 nM | 101 to 500 nM
12 | C=CC(=O)Nc1cc(C)ccc1Nc1nc(Nc2cc(N[C@H]3CC[C@](C)(O)CC3)nc(OC)c2)ncc1C(F)(F)F [Compound I-327, N-(2-((2-((2-((trans-4-hydroxy-4-methylcyclohexyl)amino)-6-methoxypyridin-4-yl)amino)-5-(trifluoromethyl)pyrimidin-4-yl)amino)-5-methylphenyl)acrylamide] |  | < 100 nM | < 100 nM

Continued, values first:

Row | GI50 [1] | GI50 [2] | GI50 [3] | Structure (SMILES)
13 | 101 to 500 nM | 501 to 999 nM | 501 to 999 nM | C=CC(=O)Nc1cc(C)ccc1Nc1nc(Nc2ncc(C(F)(F)F)c(OC)n2)ncc1C(F)(F)F [Compound I-354, N-(2-((2-((4-methoxy-5-(trifluoromethyl)pyrimidin-2-yl)amino)-5-(trifluoromethyl)pyrimidin-4-yl)amino)-5-methylphenyl)acrylamide]
14 | < 100 nM | > 1000 nM | 101 to 500 nM | C=CC(=O)Nc1cc(C)c(F)cc1Nc1nc(Nc2nc(OC)ncc2C)ncc1C(F)(F)F [Compound I-377, N-(4-fluoro-2-((2-((2-methoxy-5-methylpyrimidin-4-yl)amino)-5-(trifluoromethyl)pyrimidin-4-yl)amino)-5-methylphenyl)acrylamide]
15 | < 100 nM | 101 to 500 nM | < 100 nM | C=CC(=O)Nc1ccccc1Nc1nc(Nc2cc(OC)ncc2C)ncc1C(F)(F)F [Compound I-85, N-(2-((2-((2-Methoxy-5-methylpyridin-4-yl)amino)-5-(trifluoromethyl)pyrimidin-4-yl)amino)phenyl)acrylamide]
16 | < 100 nM | 101 to 500 nM | < 100 nM | C=CC(=O)Nc1cc(CN2CCN(C(=O)c3cccnc3)CC2)ccc1Nc1nc(Nc2cc(OC)ncc2C)ncc1C(F)(F)F [Compound I-389, N-(2-((2-((2-methoxy-5-methylpyridin-4-yl)amino)-5-(trifluoromethyl)pyrimidin-4-yl)amino)-5-((4-nicotinoylpiperazin-1-yl)methyl)phenyl)acrylamide]
17 | < 100 nM | 101 to 500 nM | < 100 nM | C=CC(=O)Nc1cc(CN2CCN(C(=O)c3cnccn3)CC2)ccc1Nc1nc(Nc2cc(OC)ncc2C)ncc1C(F)(F)F [Compound I-390, N-(2-((2-((2-methoxy-5-methylpyridin-4-yl)amino)-5-(trifluoromethyl)pyrimidin-4-yl)amino)-5-((4-(pyrazine-2-carbonyl)piperazin-1-yl)methyl)phenyl)acrylamide]
18 | < 100 nM | 101 to 500 nM | < 100 nM | C=CC(=O)Nc1cc(CN2CCN(S(C)(=O)=O)CC2)ccc1Nc1nc(Nc2cc(OC)ncc2C)ncc1C(F)(F)F [Compound I-384, N-(2-((2-((2-methoxy-5-methylpyridin-4-yl)amino)-5-(trifluoromethyl)pyrimidin-4-yl)amino)-5-((4-(methylsulfonyl)piperazin-1-yl)methyl)phenyl)acrylamide]
19 | < 100 nM | 101 to 500 nM | < 100 nM | C=CC(=O)Nc1cc(OCC(N)=O)ccc1Nc1nc(Nc2cc(OC)ncc2C)ncc1C(F)(F)F [Compound I-398, N-(5-(2-amino-2-oxoethoxy)-2-((2-((2-methoxy-5-methylpyridin-4-yl)amino)-5-(trifluoromethyl)pyrimidin-4-yl)amino)phenyl)acrylamide]
